Test results: US11040009B2, “Expansile crosslinked polymersome for ph-sensitive delivery of anticancer drugs” (Mayo Foundation for Medical Education and Research, priority 2016, dated 2021)

What was measured:
HeLa cells [1] = assay: Cell viability by MTS assay; format: cell-based; conditions: 10 μg/mL, FIG. 10
Method: HeLa cells were used as a model cancer cell for cytotoxicity evaluation. Trypsinized HeLa cells were seeded onto 48-well tissue culture polystyrene (TCPS) plates at 10,000 cells cm^−2. Cells were then cultured in Dulbecco's Modified Eagle's Medium (DMEM) supplemented with FBS, 100 U/mL penicillin, 2 mM L-glutamine, and 0.1 mg/mL streptomycin for 24 h to allow adhesion. To evaluate the cytotoxicity of PEG-Fu-DiTT polymersomes, empty samples without loaded drugs were prepared, dialyzed against phosphate-buffered saline (PBS) for 2 days, and lyophilized for 3 days. The dried polymersomes were then incubated with HeLa cells at concentrations of 0.1, 0.5, 1.0 and 2.0 mg/mL for 3 days. Wells seeded with the same HeLa cell density but without added polymersomes were used as positive controls. The relative cell densities in each group were determined by MTS assay (CellTiter 96 Aqueous One Solution, Promega, Madison, Wis.) by comparing the optical density (OD) value to that of positive controls (which were set at 100% cell density). To evaluate the cancer killing effect, similar cell culture procedures were used by adding DOX-loaded polymersomes or free drugs at concentrations of 0.01, 0.1, 0.5, 1, 5, 10 and 50 μg/mL.

HeLa cells [2] = assay: Cellular uptake by DOX fluorescence imaging; format: cell-based; conditions: 10 μg/mL
Method: HeLa cells were co-cultured with DOX-loaded polymersomes in DMEM at a drug concentration of 10 μg/mL, as described in Example 6. At time points of 1, 2, 4 hours, the culture medium was removed and cells were washed with PBS three times and then fixed in 4% paraformaldehyde. After 10 min, paraformaldehyde was removed and cells were washed three times with PBS then stained with DAPI (4′,6-diamidino-2-phenylindole) for 2 min. DOX fluorescence from polymersomes and DAPI fluorescence from cellular nuclei were visualized and photographed by Axiovert 25 Zeiss light microscope. DOX fluorescence from polymersomes appeared red, and DAPI fluorescence from cellular nuclei appeared blue.
Cellular uptake of DOX-PS particles were investigated through imaging of DOX fluorescence after 1, 3 and 5 hours of co-culture with HeLa cells. […] The first, second, and third rows correspond to incubation times of 1, 3, and 5 hours respectively.

COc1cccc2c1C(=O)c1c(O)c3c(c(O)c1C2=O)C[C@@](O)(C(=O)CO)C[C@@H]3O[C@H]1C[C@H](N)[C@H](O)[C@H](C)O1 [unencapsulated DOX, doxorubicin]
effect on cancer cell viability (HeLa cells [1]): inhibition effect | DOX fluorescence in cells (HeLa cells [2]; 1 hour): red fluorescence | DOX fluorescence in cells (HeLa cells [2]; 3 hour): slight increase in intensity | DOX fluorescence in cells (HeLa cells [2]; 5 hour): slight increase in intensity
